≈ marks a conversion by molar mass, not a printed value. Calls of active or inactive are those of the source. The rule behind the calls is not given here.
Key:
MCF7 = experiment: Cytotoxicity against human MCF7 cells assessed as reduction in cell growth after 3 days by MTT assay; format: functional, cell-based; conditions: MCF7, 72 h
[1] = Therapeutic index, ratio of IC50 for HEK293 cells to IC50 for human MCF7 cells; format: cell-based; conditions: HEK293 cells versus MCF7 cells, read-out: Ratio IC50
HT-29 [2] = experiment: Downregulation of TERT gene expression in human HT-29 cells assessed as gene expression levels at 15 ug/ml after 48 hrs by RT-qPCR analysis relative to control; format: functional
HT-29 [3] = experiment: Downregulation of c-Myc gene expression in human HT-29 cells assessed as gene expression levels at 15 ug/ml after 48 hrs by RT-qPCR analysis relative to control; format: functional
HT-29 [4] = experiment: Cytotoxicity against human HT-29 cells assessed as reduction in cell growth after 3 days by MTT assay; format: functional, cell-based; conditions: HT-29, 72 h
HT-29 [5] = experiment: Downregulation of VEGFA-165 secretion in human HT-29 cells assessed as protein secretion levels at 15 ug/ml after 72 hrs by ELISA relative to control; format: functional
[6] = Therapeutic index, ratio of IC50 for HEK293 cells to IC50 for human HT-29 cells; format: cell-based; conditions: HEK293 cells versus HT-29 cells, read-out: Ratio IC50
HEK293 = experiment: Cytotoxicity against HEK293 cells assessed as reduction in cell growth after 3 days by MTT assay; format: cell-based; conditions: Homo sapiens, HEK293, 72 h
HT-29 [7] = experiment: Downregulation of VEGFA gene expression in human HT-29 cells assessed as gene expression levels at 15 ug/ml after 48 hrs by RT-qPCR analysis relative to control; format: functional
HT-29 [8] = experiment: Downregulation of c-Myc gene expression in human HT-29 cells assessed as gene expression levels at 5 ug/ml after 48 hrs by RT-qPCR analysis relative to control; format: functional
HT-29 [9] = experiment: Downregulation of VEGFA gene expression in human HT-29 cells assessed as gene expression levels at 5 ug/ml after 48 hrs by RT-qPCR analysis relative to control; format: functional
HT-29 [10] = experiment: Downregulation of TERT gene expression in human HT-29 cells assessed as gene expression levels at 5 ug/ml after 48 hrs by RT-qPCR analysis relative to control; format: functional
HT-29 [11] = experiment: Downregulation of VEGFA-165 secretion in human HT-29 cells assessed as protein secretion levels at 5 ug/ml after 72 hrs by ELISA relative to control; format: functional
HT-29 [12] = experiment: Downregulation of VEGFA-165 secretion in human HT-29 cells assessed as protein secretion levels at 20 ug/ml after 72 hrs by ELISA relative to control; format: functional
HT-29 [13] = experiment: Downregulation of TERT gene expression in human HT-29 cells assessed as gene expression levels at 20 ug/ml after 48 hrs by RT-qPCR analysis relative to control; format: functional
HT-29 [14] = experiment: Downregulation of VEGFA gene expression in human HT-29 cells assessed as gene expression levels at 20 ug/ml after 48 hrs by RT-qPCR analysis relative to control; format: functional
HT-29 [15] = experiment: Downregulation of c-Myc gene expression in human HT-29 cells assessed as gene expression levels at 20 ug/ml after 48 hrs by RT-qPCR analysis relative to control; format: functional
HT-29 [16] = experiment: Downregulation of TERT gene expression in human HT-29 cells assessed as gene expression levels at 10 ug/ml after 48 hrs by RT-qPCR analysis relative to control; format: functional
HT-29 [17] = experiment: Downregulation of c-Myc gene expression in human HT-29 cells assessed as gene expression levels at 10 ug/ml after 48 hrs by RT-qPCR analysis relative to control; format: functional
HT-29 [18] = experiment: Downregulation of VEGFA gene expression in human HT-29 cells assessed as gene expression levels at 10 ug/ml after 48 hrs by RT-qPCR analysis relative to control; format: functional
HT-29 [19] = experiment: Downregulation of VEGFA-165 secretion in human HT-29 cells assessed as protein secretion levels at 10 ug/ml after 72 hrs by ELISA relative to control; format: functional
HT-29 [20] = experiment: Downregulation of VEGFA gene expression in human HT-29 cells assessed as gene expression levels at 30 ug/ml after 48 hrs by RT-qPCR analysis relative to control; format: functional
HT-29 [21] = experiment: Downregulation of TERT gene expression in human HT-29 cells assessed as gene expression levels at 30 ug/ml after 48 hrs by RT-qPCR analysis relative to control; format: functional
HT-29 [22] = experiment: Downregulation of c-Myc gene expression in human HT-29 cells assessed as gene expression levels at 30 ug/ml after 48 hrs by RT-qPCR analysis relative to control; format: functional
HT-29 [23] = experiment: Downregulation of VEGFA-165 secretion in human HT-29 cells assessed as protein secretion levels at 30 ug/ml after 72 hrs by ELISA relative to control; format: functional
HT-29 [24] = experiment: Downregulation of VEGFA-165 secretion in human HT-29 cells assessed as protein secretion levels at <1.1 ug/ml after 72 hrs by ELISA relative to control; format: functional, cell-based
HT-29 [25] = experiment: Downregulation of VEGFA gene expression in human HT-29 cells assessed as gene expression levels at 3 ug/ml after 48 hrs by RT-qPCR analysis relative to control; format: functional
HT-29 [26] = experiment: Downregulation of TERT gene expression in human HT-29 cells assessed as gene expression levels at 3 ug/ml after 48 hrs by RT-qPCR analysis relative to control; format: functional
HT-29 [27] = experiment: Downregulation of c-Myc gene expression in human HT-29 cells assessed as gene expression levels at 3 ug/ml after 48 hrs by RT-qPCR analysis relative to control; format: functional
HT-29 [28] = experiment: Downregulation of VEGFA-165 secretion in human HT-29 cells assessed as protein secretion levels at 3 ug/ml after 72 hrs by ELISA relative to control; format: functional

COc1cccc(-c2ccc(O)cc2)c1
IC50 (MCF7): 41 µg/mL (≈ 205 µM)
selectivity ratio [1]: 0.9
Activity (HT-29 [2]): 35%
Activity (HT-29 [3]): 34%
IC50 (HT-29 [4]): 24 µg/mL (≈ 120 µM)
Activity (HT-29 [5]): 48%
selectivity ratio [6]: 1.5
IC50 (HEK293): 35 µg/mL (≈ 175 µM)
Activity (HT-29 [7]): 51%

COc1ccc(-c2ccccc2N)cc1OC
IC50 (MCF7): 18 µg/mL (≈ 78.5 µM)
selectivity ratio [1]: 3
Activity (HT-29 [2]): 86%
Activity (HT-29 [3]): 50%
IC50 (HT-29 [4]): 15 µg/mL (≈ 65.4 µM)
Activity (HT-29 [5]): 56%
selectivity ratio [6]: 3.3
IC50 (HEK293): 49.9 µg/mL (≈ 218 µM)
Activity (HT-29 [7]): 61%

C=CCc1ccc(O)c(-c2ccc(O)c(CC=C)c2)c1 [HONOKIOL]
IC50 (MCF7): 5 µg/mL (≈ 18.8 µM)
selectivity ratio [1]: 1.9
Activity (HT-29 [8]): 45%
Activity (HT-29 [9]): 36%
Activity (HT-29 [10]): 45%
Activity (HT-29 [11]): 55%
selectivity ratio [6]: 1.5
IC50 (HEK293): 9.3 µg/mL (≈ 34.9 µM)

COc1ccc(-c2ccc(O)cc2)cc1OC
IC50 (MCF7): 34 µg/mL (≈ 148 µM)
selectivity ratio [1]: > 3
Activity (HT-29 [12]): 55%
Activity (HT-29 [13]): 22%
Activity (HT-29 [14]): 41%
Activity (HT-29 [15]): 87%
IC50 (HT-29 [4]): 26 µg/mL (≈ 113 µM)
selectivity ratio [6]: > 4
IC50 (HEK293): > 100 µg/mL

COc1cccc(-c2cccc(O)c2)c1
IC50 (MCF7): 33 µg/mL (≈ 165 µM)
selectivity ratio [1]: 1
Activity (HT-29 [16]): 88%
Activity (HT-29 [17]): 71%
Activity (HT-29 [18]): 21%
IC50 (HT-29 [4]): 16 µg/mL (≈ 79.9 µM)
selectivity ratio [6]: 2
IC50 (HEK293): 34 µg/mL (≈ 170 µM)
Activity (HT-29 [19]): 31%

COc1ccc(-c2ccccc2O)c(OC)c1
Activity (HT-29 [20]): 56%
IC50 (MCF7): > 100 µg/mL
IC50 (HT-29 [4]): 33.7 µg/mL (≈ 146 µM)
Activity (HT-29 [21]): 29%
selectivity ratio [6]: > 3
Activity (HT-29 [22]): 54%
IC50 (HEK293): > 100 µg/mL
Activity (HT-29 [23]): 29%

Oc1ccc(-c2ccccc2)cc1
IC50 (MCF7): 47 µg/mL (≈ 276 µM)
selectivity ratio [1]: 1
Activity (HT-29 [12]): 48%
Activity (HT-29 [13]): 81%
Activity (HT-29 [14]): 65%
Activity (HT-29 [15]): 55%
IC50 (HT-29 [4]): 25 µg/mL (≈ 147 µM)
selectivity ratio [6]: 2
IC50 (HEK293): 45 µg/mL (≈ 264 µM)

COc1cccc(-c2ccccc2)c1
IC50 (MCF7): 47 µg/mL (≈ 255 µM)
selectivity ratio [1]: 0.1
Activity (HT-29 [8]): 81%
Activity (HT-29 [9]): 73%
Activity (HT-29 [10]): 77%
Activity (HT-29 [11]): 57%
IC50 (HT-29 [4]): 1.1 µg/mL (≈ 5.97 µM)
selectivity ratio [6]: 5.1
Activity (HT-29 [24]): inactive
IC50 (HEK293): 5.5 µg/mL (≈ 29.9 µM)

COc1ccc(-c2ccc(O)cc2)c(OC)c1
IC50 (MCF7): 47 µg/mL (≈ 204 µM)
selectivity ratio [1]: > 2
Activity (HT-29 [2]): 56%
Activity (HT-29 [3]): 87%
IC50 (HT-29 [4]): 21 µg/mL (≈ 91.2 µM)
Activity (HT-29 [5]): 35%
selectivity ratio [6]: > 5
IC50 (HEK293): > 100 µg/mL
Activity (HT-29 [7]): 37%

Nc1cccc(-c2ccc(O)cc2)c1
Activity (HT-29 [25]): 42%
IC50 (MCF7): 6.5 µg/mL (≈ 35.1 µM)
selectivity ratio [1]: > 15
Activity (HT-29 [26]): 78%
Activity (HT-29 [27]): 39%
IC50 (HT-29 [4]): 5.4 µg/mL (≈ 29.2 µM)
selectivity ratio [6]: > 18
IC50 (HEK293): > 100 µg/mL
Activity (HT-29 [28]): 55%

COc1ccccc1-c1cccc(O)c1
IC50 (MCF7): 44 µg/mL (≈ 220 µM)
selectivity ratio [1]: 1.1
Activity (HT-29 [2]): 62%
Activity (HT-29 [3]): 50%
IC50 (HT-29 [4]): 22 µg/mL (≈ 110 µM)
Activity (HT-29 [5]): 31%
selectivity ratio [6]: 2.3
IC50 (HEK293): 50 µg/mL (≈ 250 µM)
Activity (HT-29 [7]): 76%

Nc1ccccc1-c1ccccc1
IC50 (MCF7): 2.9 µg/mL (≈ 17.1 µM)
selectivity ratio [1]: 19
Activity (HT-29 [2]): 56%
Activity (HT-29 [3]): 53%
IC50 (HT-29 [4]): 16 µg/mL (≈ 94.5 µM)
Activity (HT-29 [5]): 91%
selectivity ratio [6]: 3.3
IC50 (HEK293): 54.9 µg/mL (≈ 324 µM)
Activity (HT-29 [7]): 65%

Source: ChEMBL document CHEMBL3813664, “Synthesis and evaluation of biphenyl derivatives as potential downregulators of VEGF protein secretion and telomerase-related gene expressions” (Bioorg Med Chem, 2016)
